Source: patent US7786141B2 (Vertex Pharmaceuticals Incorporated, priority 2004, dated 2010)
Where two headings read alike, the source gives them in different places.

How the values were obtained:
M1 muscarinic receptor = target: T1, M1 muscarinic receptor (Homo sapiens, UniProt P11229); assay: Functional mobilization of intracellular calcium (FLIPR) in M1-CHO cells; type: cell-based
T1 construct: expressed in transfected cells; host or cells: CHO (M1-CHO)
T1 sequence (P11229 1-460): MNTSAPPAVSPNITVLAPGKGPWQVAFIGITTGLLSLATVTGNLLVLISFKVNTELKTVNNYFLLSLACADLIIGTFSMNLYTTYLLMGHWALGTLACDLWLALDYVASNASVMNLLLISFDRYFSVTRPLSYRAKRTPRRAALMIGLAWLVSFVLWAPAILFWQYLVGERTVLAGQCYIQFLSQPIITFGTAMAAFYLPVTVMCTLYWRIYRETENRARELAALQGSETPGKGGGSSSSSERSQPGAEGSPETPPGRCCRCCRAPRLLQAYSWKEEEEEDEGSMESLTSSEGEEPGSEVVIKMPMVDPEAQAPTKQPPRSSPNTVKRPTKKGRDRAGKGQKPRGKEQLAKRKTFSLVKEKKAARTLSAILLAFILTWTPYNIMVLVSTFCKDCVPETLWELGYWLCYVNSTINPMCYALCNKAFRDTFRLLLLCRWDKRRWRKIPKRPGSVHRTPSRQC
In short: (§1)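 Measured via Fluo-3 fluorescence on a FLIPR, CHO cells with either muscarinic subtype received compound in 0.5% DMSO. Antagonism was assessed after 15 min pre-incubation followed by carbachol at each subtype's EC80; agonism from compound addition alone.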

M4 muscarinic receptor = target: T2, M4 muscarinic receptor (Homo sapiens, UniProt P08173); assay: Functional mobilization of intracellular calcium (FLIPR) in M4-CHO cells; type: cell-based
T2 construct: expressed in transfected cells; host or cells: CHO (M4-CHO)
T2 sequence (P08173 1-479): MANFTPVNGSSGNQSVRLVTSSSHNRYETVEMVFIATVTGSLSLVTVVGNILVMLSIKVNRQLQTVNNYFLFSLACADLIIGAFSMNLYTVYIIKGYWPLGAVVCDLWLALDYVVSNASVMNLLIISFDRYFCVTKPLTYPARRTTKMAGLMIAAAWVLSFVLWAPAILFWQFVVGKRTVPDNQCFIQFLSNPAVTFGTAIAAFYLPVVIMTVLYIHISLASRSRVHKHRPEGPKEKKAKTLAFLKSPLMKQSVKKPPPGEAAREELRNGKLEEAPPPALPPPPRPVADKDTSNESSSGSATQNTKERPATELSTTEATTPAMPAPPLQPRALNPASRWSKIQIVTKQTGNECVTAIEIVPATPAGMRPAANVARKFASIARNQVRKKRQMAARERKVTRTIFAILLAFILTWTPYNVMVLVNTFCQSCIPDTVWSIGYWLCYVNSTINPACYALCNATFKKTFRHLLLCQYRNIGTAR
In short: as §1

[1] = Table 4, 100% efficacy is the maximum response obtained with the Carbachol control
[2] = Table 4, modulating M1 receptor
[3] = Table 4, modulating M4 receptor
[4] = Table 4, M1 receptor, calcium mobilization (FLIPR)
[5] = Table 4, M4 receptor, calcium mobilization (FLIPR)
[6] = 100% efficacy is the maximum response obtained with the Carbachol control, Table 5

Compound	Emax (M1 muscarinic receptor; [1])	M1 Activity (M1 muscarinic receptor; [2])	Emax (M4 muscarinic receptor; [1])	M4 Activity (M4 muscarinic receptor; [3])	other results
CN(C)C(=O)N1CC2(CCN(C3CCN(c4cccnc4)CC3)CC2)c2cc(F)ccc21 [compound 535]	25 to 100%	xxx (activity was measured to be less than 2.0 μM)	25 to 100%	xxx (activity was measured to be less than 2.0 μM)	
CC(=O)N1CC2(CCN(C3CCN(c4cncc(CC(C)C)n4)CC3)CC2)c2ccccc21 [compound 893]	< 25%		< 25%		M1 Activity (M1 muscarinic receptor; [4]): x (activity was measured to be greater than 5.0 μM); M4 Activity (M4 muscarinic receptor; [5]): x (activity was measured to be greater than 5.0 μM)
CC#CCOC(=O)N1CCC(N2CCC3(CC2)CN(C(C)=O)c2cccc(C)c23)CC1 [compound 526]	25 to 100%	xxx (activity was measured to be less than 2.0 μM)	< 25%	x (activity was measured to be greater than 5.0 μM)	
CC(=O)N1CC2(CCN(CC3CCC(C)=CC3C)CC2)c2cc(F)ccc21 (stereo not shown) [compound 968]	< 25%		< 25%		M1 Activity (M1 muscarinic receptor; [4]): x (activity was measured to be greater than 5.0 μM); M4 Activity (M4 muscarinic receptor; [5]): x (activity was measured to be greater than 5.0 μM)
CC(=O)N1CC2(CCN(C3CC4CCC(C3)N4C(=O)O[C@@H]3CCOC3)CC2)c2cc(F)ccc21 (stereo partly shown) [compound 67]					M1 Activity (M1 muscarinic receptor; M1 receptor, calcium mobilization): xxx (activity was measured to be less than 0.1 μM); Emax (M1 muscarinic receptor; M1 receptor, calcium mobilization, read-out: M1 Efficacy): < 65%; M4 Activity (M4 muscarinic receptor; M4 receptor, calcium mobilization): xx (activity was measured to be between 0.1 μM and 1.0 μM); Emax (M4 muscarinic receptor; M4 receptor, calcium mobilization, read-out: M4 Efficacy): < 65%
CN(C)C(=O)N1CC2(CCN(C3CCN(c4ccsc4)CC3)CC2)c2cc(F)ccc21 [compound 561]	25 to 100%	x (activity was measured to be greater than 5.0 μM)	25 to 100%	xx (activity was measured to be between 2.0 μM and 5.0 μM)	
OC1CC2(CCN([C@@H]3C[C@H]4CC[C@@H]3C4)CC2)c2ccccc21 (stereo partly shown) [compound 536]	25 to 100%	xxx (activity was measured to be less than 2.0 μM)	25 to 100%	xxx (activity was measured to be less than 2.0 μM)	
CN(C)C(=O)N1CC2(CCN(C3CCN(C(=O)c4cnccn4)CC3)CC2)c2cc(F)ccc21 [compound 531]	< 25%	x (activity was measured to be greater than 5.0 μM)	< 25%	x (activity was measured to be greater than 5.0 μM)	
CC(=O)N1CC2(CCN(C3CCCCC3)CC2)c2cc(F)ccc21 [compound 387]					EC50 (M1 muscarinic receptor; M1-CHO cells, calcium mobilization (FLIPR)): < 100 nM; Emax (M1 muscarinic receptor; M1-CHO cells, calcium mobilization (FLIPR), read-out: M1 Efficacy): 65 to 85%; EC50 (M4 muscarinic receptor; M4-CHO cells, calcium mobilization (FLIPR)): 100 to 1000 nM; Emax (M4 muscarinic receptor; M4-CHO cells, calcium mobilization (FLIPR), read-out: M4 Efficacy): < 65%
CN(C)C(=O)N1CC2(CCN(C3CCN(c4ccccc4F)CC3)CC2)c2cc(F)ccc21 [compound 1024]					Emax (M1 muscarinic receptor; [6]): 25 to 100%; EC50 (M1 muscarinic receptor; CHO cells expressing M1, calcium mobilization, Table 5): 2000 to 10000 nM; Emax (M4 muscarinic receptor; [6]): < 25%; EC50 (M4 muscarinic receptor; CHO cells expressing M4, calcium mobilization, Table 5): 2000 to 10000 nM
CC(=O)N[C@H]1CCC2(CCN(CC3CC3)CC2)c2ccccc21 [compound 514]	25 to 100%	xx (activity was measured to be between 2.0 μM and 5.0 μM)	25 to 100%	x (activity was measured to be greater than 5.0 μM)	
CC(=O)N[C@H]1CC2(CCN([C@@H]3CC4CCC3C4)C2)c2ccc(F)cc21 (stereo partly shown) [compound 821]	25 to 100%		< 25%		M1 Activity (M1 muscarinic receptor; [4]): x (activity was measured to be greater than 5.0 μM); M4 Activity (M4 muscarinic receptor; [5]): x (activity was measured to be greater than 5.0 μM)
CCC(=O)N[C@H]1CC2(CCN([C@@H]3C[C@@H]4CC[C@@H]3C4)CC2)c2ccccc21 [compound 490]	25 to 100%	x (activity was measured to be greater than 5.0 μM)	> 100%	xxx (activity was measured to be less than 2.0 μM)	
